Publication PMC3486515 (Investigational new drugs, 2010)
“And” between values parts separate entries of the source, which are not always exact repeats. Equal entries are not always repeated. “Also recorded” adds a separate entry of the source.

Columns and labels:
[1] = test system: patients with advanced solid tumors
refractory solid tumors = details: 72-hr infusion schedule; cited from earlier work
advanced solid tumors = assay: Objective response by RECIST; format: in vivo, human
[2] = test system: patients with advanced solid tumors; details: human, in vivo
[3] = Plasma pharmacokinetics, LC/MS/MS, non-compartmental analysis
[4] = test system: refractory chronic lymphocytic leukemia (CLL); details: cited from earlier work
[5] = Flavopiridol protein binding in patient PK samples by micro-equilibrium dialysis; details: for concentration at 4 h: human, plasma, intravenous, Mean free flavopiridol plasma concentration at the end of the 4-hour infusion
IL-6 = assay: Serum cytokine levels by cytokine bead array and ELISA; details: prior to and after flavopiridol infusion
[6] = All dose levels, 34 pts, first dose, mean ± SD
[7] = dose level 1, 1B (30+30 mg/m^2 bolus+infusion), 6 pts, first dose, mean ± SD
[8] = dose level 2, 2B (30+45 mg/m^2 bolus+infusion), 9 pts, first dose, mean ± SD
[9] = dose level 3 (30+60 mg/m^2 bolus+infusion), 9 pts, first dose, mean ± SD
[10] = dose level 4 (30+75 mg/m^2 bolus+infusion), 2 pts, first dose, mean ± SD
[11] = dose level −1, −1B (20+20 mg/m^2 bolus+infusion), 8 pts, first dose, mean ± SD

In the case of `C[C@@H]1C[C@H]2[C@@H]3CCC4=CC(=O)C=C[C@]4(C)[C@@]3(F)[C@@H](O)C[C@]2(C)[C@@]1(O)C(=O)CO` [dexamethasone], the “Effect on frequency/incidence of CKRS” value ([1]; prophylactic dexamethasone 20 mg prior to bolus dose of flavopiridol) is reported as “did not impact the frequency of CKRS; also recorded: did not impact the incidence of CKRS; also recorded: not associated with decreased occurrence of CKRS”.

In the case of `CN1CC[C@H](c2c(O)cc(O)c3c(=O)cc(-c4ccccc4Cl)oc23)[C@H](O)C1` [flavopiridol], the “Major dose-limiting toxicity (DLT)” value (refractory solid tumors) is listed as “Secretory diarrhea”, the “Patients off study for progressive disease (PD)” value (advanced solid tumors; 34 patients) is listed as 18 patients and the “Antitumor (objective) responses” value (advanced solid tumors; 34 patients with advanced solid tumors, RECIST) is listed as “No antitumor responses were observed; also recorded: No objective responses were observed”. The “Patients with PD” value (advanced solid tumors; after completing two cycles) was “seventeen”, the “Adverse event: Deep venous Thrombosis” value [2] was 1 and the “Adverse event: Diaphories” value [2] was 8 (24) N (%). For the same compound, the “Adverse event: Dizziness” value [2] was 6 (35) N (%), the “Adverse event: Dysphagia” value [2] was 1 and the “Adverse event: Dyspnea” value [2] was 5. For the same compound, the “Adverse event: Elevated Alk Phos” value [2] was 2, the “Adverse event: Febrile neutropenia” value [2] was 1 and the “Adverse event: Fever” value [2] was 4 (12) N (%). For the same compound, the “Adverse event: Hyperbilrubinemia” value [2] was 4 (12) N (%), the “Adverse event: Hypercalcemia” value [2] was 1 and the “Adverse event: Hypoxemia” value [2] was 2. The “Adverse event: Nausea and/or vomiting” value [2] was 20 (59) N (%), the “Adverse event: Somonolence” value [2] was 4 (12) N (%) and the “Adverse event: Tumor lysis syndrome” value [2] was 1. The “Patients off study for grade 3 AEs” value [2] was 6 patients, the “Patients off study for grade 3 AST/ALT” value [2] was 2 n and the “Patients off study for grade 3 CKRS” value [2] was 4 n. The “Patients with CKRS” value [2] was 41%, the “Time to resolution of CKRS symptoms” value [2] was at most 6 h and the “Mean end-of-infusion concentration (C0.5)” value ([3]; 20 mg/m^2 bolus dose) was 0.91 ± 0.26 mM. For the same compound, the “Mean end-of-infusion concentration (C0.5)” value ([3]; 30 mg/m^2 bolus dose) was 1.42 ± 0.66 mM, the “Dose proportionality of plasma concentrations (Cmax) and AUC” value ([3]; 5 doses from 40 to 105 mg/m^2) was “increased proportionally with dose; also recorded: proportional increases in Cmax and AUC” and the “AUCO-∞” value [3, 6] was 13.6 ± 7.0 hr x µM. The CL [3, 6] was 12.7 ± 6.3 L/hr/m^2, the “V2 (volume of distribution)” value [3, 6] was 241 ± 149 L/m^2 and the “AUCO-∞” value [3, 7] was 13.2 ± 3.4 hr x µM. For the same compound, the CL [3, 7] was 11.9 ± 3.0 L/hr/m^2, the “V2 (volume of distribution)” value [3, 7] was 198 ± 82 L/m^2 and the “AUCO-∞” value [3, 8] was 14.3 ± 6.8 hr x µM. For the same compound, the CL [3, 8] was 15.3 ± 5.8 L/hr/m^2, the Cmax [3, 8] was 1790 ± 830 nM and the “V2 (volume of distribution)” value [3, 8] was 307 ± 155 L/m^2. The “AUCO-∞” value [3, 9] was 16.6 ± 8.6 hr x µM, the CL [3, 9] was 16.5 ± 7.0 L/hr/m^2 and the “V2 (volume of distribution)” value [3, 9] was 309 ± 168 L/m^2. The “AUCO-∞” value [3, 10] was 20.8 hr x µM and 20.8 ± 5.6 hr x µM, the CL [3, 10] was 13.1 ± 3.6 L/hr/m^2 and the Cmax [3, 10] was 2710 ± 1080 nM. The “V2 (volume of distribution)” value [3, 10] was 260 ± 28 L/m^2, the “AUCO-∞” value [3, 11] was 7.9 hr x µM and 7.9 ± 4.2 hr x µM and the CL [3, 11] was 6.1 ± 2.5 L/hr/m^2. The “V2 (volume of distribution)” value [3, 11] was 117 ± 99 L/m^2, the AUC(0-inf) ([3]; human, plasma, intravenous, AUC0–∞, overall mean, all doses (40–105 mg/m^2), 34 patients) was 13.6 ± 7 µM·h and the half-life ([3]; human, plasma, intravenous, T1/2, All dose levels, 34 pts, first dose, mean ± SD) was 852 ± 504 min. For the same compound, the Tmax ([3]; human, plasma, intravenous, Tmax, All dose levels, 34 pts, first dose, mean ± SD) was 2.02 ± 1.87 h, the Partial response rate ([4]; PK-directed schedule, single agent, CLL) was 40% and the Response rate ([4]; phase II study, refractory CLL patients) was “approximately 50%”. For the same compound, the “MTD (bolus+infusion)” value ([4]; refractory CLL patients) was 30+50 mg/m^2, the “Maximum-tolerated dose (MTD), infusion” value ([4]; refractory CLL, 4-hr infusion) was 50 mg/m^2 and the “Maximum-tolerated dose (MTD), bolus” value ([4]; refractory CLL, 30-minute loading dose) was 30 mg/m^2. For the same compound, the “Maximum-tolerated dose, bolus” value ([1]; 30-min bolus, weekly for 4 weeks on a 6-week cycle, patients with advanced solid tumors, dose level −1B) was 20 mg/m^2, the “Maximum-tolerated dose, infusion” value ([1]; infusion over 4 hours after bolus, weekly for 4 weeks on a 6-week cycle, patients with advanced solid tumors, dose level −1B) was 20 mg/m^2 and the “Deaths attributed to CKRS” value ([1]; on study) was “One death on the study was attributed to CKRS”. The “MTD (bolus+infusion)” value ([1]; patients with advanced solid tumors) was 20+20 mg/m^2, the concentration at 4 h ([5]; patients who did not experience CKRS (N=20), cycle 1) was 20 ± 9 nM and the concentration at 4 h ([5]; patients with grade 1 or higher CKRS during cycle 1) was 35 ± 26 nM. For the same compound, the “Mean free flavopiridol AUC” value ([5]; patients with CKRS during cycle 1) was 318 ± 220 nM·h, the “Mean free flavopiridol AUC” value ([5]; patients without observed CKRS during cycle 1) was 215 ± 103 nM·h and the IL-6 serum levels (IL-6) was “associated with flavopiridol infusion”. The “Other serum cytokines (IL-2, IL-4, IL-10, TNF-α, IFNγ)” value (IL-6) was “No other cytokines were associated with flavopiridol infusion”.
